System: male C57BI/6 mice
Test: LPS-Induced Pulmonary Inflammation Study
Type: in vivo
Settings: for average lavage TNFα: lavage supernatant, ELISA
Experimental: This study was to test the efficacy of orally administered compounds as disclosed herein to reduce LPS-induced inflammatory cell infiltration of the lungs, and was carried out in male C57BI/6 mice.
Day 11: Groups 1 and 2 were administered 10% HP-β-CD. Group 3: 7.59 mg dexamethasone 21-phosphate disodium salt (Sigma, Cat. D1159, lot 88H1020, SF 1.316) was dissolved in […] HP-β-CD to prepare a 0.2 mg/mL solution. Group 4: 1 mg Example 7 was dissolved in 4.5 mL HP-β-CD and 7 µL 1 M HCI (MP Biomedicals, Cat. 194055, lot 3956H) with alternating sonication and vortexing. The pH was adjusted by addition of 5 µL 1 M NaOH and the volume brought up to 5 mL with 0.488 mL HP-β-CD to yield a 0.2 mg/mL solution. Group 5: 3 mg Example 7 was dissolved in 4.5 mL HP-β-CD and 20 µL 1 M HCI with alternating sonication and vortexing. The pH was adjusted by addition of 16 µL 1 M NaOH and the volume brought up to 5 mL with 0.464 mL HP-β-CD to yield a 0.6 mg/ mL solution. Group 6: 10 mg Example 7 was dissolved in 4.5 mL HP-β-CD and 66 µL 1 M HCI with alternating sonication and vortexing. The pH was adjusted by addition of 53 µL 1 M NaOH and the volume brought up to 5 mL with 0.381 mL HP-β-CD to yield a 2 mg/mL solution.
25.7 mg lipopolysaccharides (LPS) from E. coli strain 055:B5 (Sigma, Cat. L2880, lot 025M4040V) was dissolved in 2.57 mL sterile saline (Hospira, lot 56-836-FW) to prepare a 10 mg/mL solution.
The mice were numbered, weighed, and dosed orally at 10 mL/kg as in Table 5.
An hour later, the mice were anesthetized, a midline incision was made in the neck, the muscle layers separated by blunt dissection, and 2 mL/kg LPS (20 mg/kg) injected into the trachea (Groups 2-6). The incision was closed with wound clips and the mice returned to cages. Group 1 received 2 mL/kg saline.
Six hours after LPS/saline injection, the mice were anesthetized, the wound clips removed, the trachea was cannulated with a 23 G needle blunt, and the lungs lavaged eight times with 0.5 mL heparinized saline. The lavage was pooled, gently inverted, and a sample retained for white blood cell (WBC) counts and differential analysis. The remainder of the lavage was centrifuged, the supernatants dispensed to one aliquot in labelled Eppendorf tubes which were stored at -80° C. The carcasses were disposed of appropriately.
Day 14: The aliquot of lung lavage supernatant was equilibrated to room temperature, diluted 1:2 and assayed for TNFα by ELISA (R&D Systems, Cat. MTA00B, lot 332141).

[1] = 2 mg/kg oral, one hour pre-treatment (Group 4), did not reach statistical significance
[2] = 6 mg/kg oral, one hour pre-treatment (Group 5)
[3] = 20 mg/kg oral, one hour pre-treatment (Group 6)

CS(=O)(=O)N1CCN(c2ccc(-c3nc4ccncc4n3-c3ccc(F)cc3)cn2)CC1 [Example 7, 1-{5-[3-(4-Fluorophenyl)-3H-Imidazo[4,5-C]Pyridin-2-Yl]Pyridin-2-Yl}-4-Methanesulfonylpiperazine]
reduction in infiltrating inflammatory cells [1]: 3%
reduction in lavage TNFα content [1]: 10%
reduction in neutrophils in the lavage fluid [1]: 27%
reduction in neutrophils in the lavage fluid (6 mg/kg oral, one hour pre-treatment): 97%
reduction in infiltrating inflammatory cells [2]: 70%
reduction in lavage TNFα content [2]: 65%
reduction in neutrophils in the lavage fluid (20 mg/kg oral, one hour pre-treatment): 97%
reduction in infiltrating inflammatory cells [3]: 93%
reduction in lavage TNFα content [3]: 74%
effect of one hour oral pre-treatment on all measured parameters (2, 6, 20 mg/kg oral prior to LPS challenge, in words): significant dose-dependent reduction in all measured parameters
effect of oral pre-treatment on LPS-induced pulmonary Neutrophil infiltration (FIG. 1, in words): decreases neutrophil infiltration in lung tissue
effect of oral pre-treatment on LPS-induced pulmonary lavage TNFa content (FIG. 2, in words): decreases TNFa content in pulmonary lavage
average lavage TNFα (Group 4, 2 mg/kg oral 1 h before LPS, Mean SD): 337.00 pg/mL
Neutrophils (Group 4, 2 mg/kg oral 1 h before LPS, lung lavage 6 h after LPS, Mean SD): 583 204
average lavage TNFα (Group 5, 6 mg/kg oral 1 h before LPS, Mean SD): 132.90 pg/mL
average lavage TNFα (Group 6, 20 mg/kg oral 1 h before LPS, Mean SD): 98.87 pg/mL

Source: patent US20230190728A1, “NEW THERAPEUTIC USES OF COMPOUNDS” (PROXIMAGEN, LLC, priority 2020, published 2023)
